Data taken from ChEMBL document CHEMBL1201862, “PubChem BioAssay data set” (2004).
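Cells were grown in 96-well plates and exposed to each compound for 48 hours at five concentrations; endpoints were interpolated linearly between bracketing concentrations, or set to the highest concentration if not reached. GI50: concentration for 50% inhibition of growth.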 The source made the active and inactive calls. No stated cut-off is given here; in the data, active = GI50 up to about 1.1 µM and inactive = higher.

Experiments:
Assay in all cases: inhibition of tumour cell growth, NCI panel, 48 h
MDA-N = test system: MDA-N
OVCAR-5 = test system: OVCAR-5
UACC-257 = test system: UACC-257
TK-10 = test system: TK-10
MCF7 = test system: MCF7
SNB-19 = test system: SNB-19
RPMI-8226 = test system: RPMI-8226
DU-145 = test system: DU-145
Hs-578T = test system: Hs-578T
A549 = test system: A549
HCT-116 = test system: HCT-116
SNB-75 = test system: SNB-75
COLO 205 = test system: COLO 205
T47D = test system: T47D
IGROV-1 = test system: IGROV-1
NCI-H23 = test system: NCI-H23
PC-3 = test system: PC-3
SF-539 = test system: SF-539
CCRF-CEM = test system: CCRF-CEM

SMILES | GI50 (MDA-N) | GI50 (OVCAR-5) | GI50 (UACC-257) | GI50 (TK-10) | GI50 (MCF7) | GI50 (SNB-19) | GI50 (RPMI-8226) | GI50 (DU-145) | GI50 (Hs-578T) | GI50 (A549) | GI50 (HCT-116) | GI50 (SNB-75) | GI50 (COLO 205) | GI50 (T47D) | GI50 (IGROV-1) | GI50 (NCI-H23) | GI50 (PC-3) | GI50 (SF-539) | GI50 (CCRF-CEM)
Oc1c(Br)cc(Br)cc1CN(Cc1cc(Br)cc(Br)c1O)C1CCCCC1 | 35.9 µM (inactive) | 37.6 µM (inactive) | 19.5 µM (inactive) | 26.4 µM (inactive) | 25.5 µM (inactive) | 33.6 µM (inactive) | 30.2 µM (inactive) | 38 µM (inactive) | 17.2 µM (inactive) | 30.9 µM (inactive) | 33.4 µM (inactive) | 24.6 µM (inactive) | 14.7 µM (inactive) | 32.4 µM (inactive) | 34.1 µM (inactive) | 23.2 µM (inactive) | 21.1 µM (inactive) | – | –
CCNC(=S)NNC(=O)CSc1nc2ccc(I)cc2c(=O)n1Cc1ccccc1 | 13.5 µM (inactive) | > 100 µM (inactive) | 17.7 µM (inactive) | > 51.2 µM (inactive) | 16.9 µM (inactive) | > 87.5 µM (inactive) | 14.8 µM (inactive) | > 79.4 µM (inactive) | 29.7 µM (inactive) | 25.5 µM (inactive) | 6.5 µM (inactive) | > 85.7 µM (inactive) | 25.7 µM (inactive) | 5.27 µM (inactive) | 14.6 µM (inactive) | 21.6 µM (inactive) | 18.5 µM (inactive) | 45.8 µM (inactive) | 7.98 µM (inactive)
Cc1cc(=O)oc2c(C)c3oc(CBr)c(Br)c3cc12 | 30.4 µM (inactive) | 27.4 µM (inactive) | 54.5 µM (inactive) | 56.4 µM (inactive) | 33.1 µM (inactive) | 31.6 µM (inactive) | 16.3 µM (inactive) | 42.9 µM (inactive) | 44.1 µM (inactive) | 17.4 µM (inactive) | 26.9 µM (inactive) | 22.5 µM (inactive) | 28.2 µM (inactive) | 24.2 µM (inactive) | 17.7 µM (inactive) | 39 µM (inactive) | 40.4 µM (inactive) | 37.6 µM (inactive) | 10.4 µM (inactive)
[N-]=[N+]=Nc1c(Cl)c(=O)n(-c2ccccc2)c2ccccc12 | 24.5 µM (inactive) | 24.3 µM (inactive) | 24.2 µM (inactive) | > 10 µM (inactive) | 21.8 µM (inactive) | 28.9 µM (inactive) | 34 µM (inactive) | 29.2 µM (inactive) | 25.3 µM (inactive) | 28.4 µM (inactive) | 17.8 µM (inactive) | 18.5 µM (inactive) | 25.8 µM (inactive) | 11.8 µM (inactive) | 15.6 µM (inactive) | 19.6 µM (inactive) | 18.7 µM (inactive) | 22.3 µM (inactive) | 11.9 µM (inactive)
CCOC(=O)c1nc[nH]c1/N=N/N(C)N | > 100 µM (inactive) | > 100 µM (inactive) | > 100 µM (inactive) | > 100 µM (inactive) | 98.4 µM (inactive) | – | 46.6 µM (inactive) | > 100 µM (inactive) | > 100 µM (inactive) | > 100 µM (inactive) | > 100 µM (inactive) | > 100 µM (inactive) | 36.6 µM (inactive) | 20.8 µM (inactive) | > 100 µM (inactive) | > 100 µM (inactive) | > 100 µM (inactive) | > 100 µM (inactive) | –
N#CCC1C2CC3C(C2=O)C13 (stereo not drawn) | > 100 µM (inactive) | > 100 µM (inactive) | > 100 µM (inactive) | > 100 µM (inactive) | > 100 µM (inactive) | > 100 µM (inactive) | > 100 µM (inactive) | > 100 µM (inactive) | > 100 µM (inactive) | > 100 µM (inactive) | > 100 µM (inactive) | > 100 µM (inactive) | > 100 µM (inactive) | > 100 µM (inactive) | > 100 µM (inactive) | > 100 µM (inactive) | > 100 µM (inactive) | > 100 µM (inactive) | > 100 µM (inactive)
Cc1cc2nc3ccccc3n2c2ccccc12 | > 10 µM (inactive) | > 10 µM (inactive) | > 10 µM (inactive) | > 10 µM (inactive) | > 10 µM (inactive) | > 10 µM (inactive) | > 10 µM (inactive) | > 10 µM (inactive) | > 10 µM (inactive) | > 10 µM (inactive) | > 10 µM (inactive) | > 10 µM (inactive) | > 10 µM (inactive) | > 10 µM (inactive) | > 10 µM (inactive) | > 10 µM (inactive) | > 10 µM (inactive) | > 10 µM (inactive) | 5.96 µM (inactive)
O=c1oc2c(Br)c(O)c(Br)cc2c2ccccc12 | 31.5 µM (inactive) | 35 µM (inactive) | 18 µM (inactive) | 34.9 µM (inactive) | 16.3 µM (inactive) | 30.3 µM (inactive) | 27 µM (inactive) | 29.3 µM (inactive) | 20.7 µM (inactive) | 32.5 µM (inactive) | 29.4 µM (inactive) | 32 µM (inactive) | 29.9 µM (inactive) | 25 µM (inactive) | 30.6 µM (inactive) | 15.6 µM (inactive) | 21 µM (inactive) | 23.9 µM (inactive) | 25.6 µM (inactive)
CC1=NN(C(=O)CC(=O)Nc2ccccc2C)C(=O)C1/N=N/c1ccc(C(=O)O)cc1 (stereo not drawn) | > 100 µM (inactive) | > 100 µM (inactive) | > 100 µM (inactive) | > 100 µM (inactive) | > 100 µM (inactive) | > 100 µM (inactive) | > 100 µM (inactive) | > 100 µM (inactive) | 68.9 µM (inactive) | > 100 µM (inactive) | > 100 µM (inactive) | 70.5 µM (inactive) | > 100 µM (inactive) | 44.1 µM (inactive) | > 100 µM (inactive) | > 100 µM (inactive) | > 100 µM (inactive) | > 100 µM (inactive) | 86.9 µM (inactive)
O=C(c1ccccc1)n1cc(-c2ccccc2)c2c(=O)nc[nH]c21 | > 100 µM (inactive) | > 100 µM (inactive) | > 100 µM (inactive) | > 100 µM (inactive) | > 100 µM (inactive) | > 100 µM (inactive) | > 100 µM (inactive) | > 100 µM (inactive) | > 100 µM (inactive) | > 100 µM (inactive) | > 100 µM (inactive) | 17.4 µM (inactive) | > 100 µM (inactive) | > 100 µM (inactive) | > 100 µM (inactive) | > 100 µM (inactive) | > 100 µM (inactive) | > 100 µM (inactive) | > 100 µM (inactive)
CCOC(=O)N1CCN(c2c(N)nc(C)nc2O)CC1 | > 100 µM (inactive) | > 100 µM (inactive) | > 100 µM (inactive) | > 100 µM (inactive) | > 100 µM (inactive) | > 100 µM (inactive) | > 100 µM (inactive) | > 100 µM (inactive) | > 100 µM (inactive) | > 100 µM (inactive) | > 100 µM (inactive) | > 100 µM (inactive) | > 100 µM (inactive) | > 100 µM (inactive) | – | > 100 µM (inactive) | > 100 µM (inactive) | > 100 µM (inactive) | > 100 µM (inactive)
CC(NC(=O)C(Cc1ccc(OC(=O)c2ccccc2)cc1)NC(=O)OC(C)(C)C)C(=O)NCC(=O)NC(Cc1ccccc1)C(=O)NN (stereo not drawn) | 37.1 µM (inactive) | > 100 µM (inactive) | – | 70.3 µM (inactive) | 40.9 µM (inactive) | 45.6 µM (inactive) | 15.8 µM (inactive) | > 100 µM (inactive) | 32.7 µM (inactive) | > 100 µM (inactive) | 43.1 µM (inactive) | 25.6 µM (inactive) | 23.8 µM (inactive) | 62.8 µM (inactive) | 25.4 µM (inactive) | 74.5 µM (inactive) | 24.2 µM (inactive) | > 100 µM (inactive) | –
COc1cc(Oc2nc3c(N)cc(C(F)(F)F)cc3nc2-c2ccccc2)cc(OC)c1OC | 0.412 µM (active) | 31.3 µM (inactive) | 4.09 µM (inactive) | 26.1 µM (inactive) | 3.17 µM (inactive) | 3.17 µM (inactive) | 2.45 µM (inactive) | 8.55 µM (inactive) | 3.69 µM (inactive) | 5 µM (inactive) | 2.34 µM (inactive) | 1.23 µM (inactive) | 3.62 µM (inactive) | 5.81 µM (inactive) | 0.916 µM (active) | 2.82 µM (inactive) | 1.92 µM (inactive) | 3.4 µM (inactive) | 4.9 µM (inactive)
COc1ccc(-c2nc(N)c3ncn(C4OC(CO)C(O)C4O)c3n2)cc1 (stereo not drawn) | > 100 µM (inactive) | > 100 µM (inactive) | > 100 µM (inactive) | > 100 µM (inactive) | > 100 µM (inactive) | > 100 µM (inactive) | > 100 µM (inactive) | > 100 µM (inactive) | > 100 µM (inactive) | > 100 µM (inactive) | > 100 µM (inactive) | > 100 µM (inactive) | > 100 µM (inactive) | > 100 µM (inactive) | > 100 µM (inactive) | > 100 µM (inactive) | > 100 µM (inactive) | > 100 µM (inactive) | > 100 µM (inactive)
O=C1/C(=C/c2ccc(O)cc2)CC/C1=C\c1ccc(O)cc1 | > 100 µM (inactive) | > 100 µM (inactive) | > 100 µM (inactive) | > 100 µM (inactive) | > 100 µM (inactive) | > 87.1 µM (inactive) | 49.3 µM (inactive) | > 100 µM (inactive) | > 100 µM (inactive) | > 95.1 µM (inactive) | > 100 µM (inactive) | > 100 µM (inactive) | > 100 µM (inactive) | > 95.1 µM (inactive) | > 100 µM (inactive) | > 100 µM (inactive) | 59.6 µM (inactive) | 22.6 µM (inactive) | 1.52 µM (inactive)
